Test results: patent US6737383B1, “Herbicidal oxadiazolidines” (priority 1999, dated 2004)

Assays:
[1] = tested on: cocklebur; assay: Test B pre/postemergence cocklebur; type: in vivo, Xanthium strumarium
Method in brief: (§1)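 Test chemicals in a non-phytotoxic solvent mixture with surfactant were sprayed preemergence onto planted seeds and postemergence onto plants 2 to 18 cm tall (1- to 4-leaf stage). After twelve to sixteen days in a greenhouse, injury was visually rated against untreated controls from 0 (no effect) to 10 (complete control).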

[2] = tested on: giant foxtail; assay: Test B pre/postemergence giant foxtail; type: in vivo, Setaria faberii
Method in brief: as §1

[3] = tested on: morningglory; assay: Test B pre/postemergence morningglory; type: in vivo, Ipomoea hederacea
Method in brief: as §1

[4] = tested on: bamyardgrass; assay: Test B flood test barnyardgrass; type: in vivo, Echinochloa crus-galli
Method in brief: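 Each value is a visual injury score relative to controls, with 10 meaning complete control and 0 no effect. Evaluation took place twelve to sixteen days after the 2-leaf-stage plants were treated and kept in the greenhouse.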

[5] = Postemergence, Rate 62 g/ha, scale 0 to 10, 0 is no effect, 10 is complete control
[6] = Postemergence, Rate 250 g/ha, scale 0 to 10, 0 no effect, 10 complete control
[7] = Preemergence, Rate 62 g/ha, scale 0 to 10, 0 is no effect, 10 is complete control
[8] = Preemergence, Rate 125 g/ha, scale 0 to 10 (0 no effect, 10 complete control)
[9] = Preemergence, Rate 250 g/ha, scale of 0 to 10 where 0 is no effect and 10 is complete control
[10] = Preemergence, Rate 500 g/ha, scale 0 (no effect) to 10 (complete control)
[11] = Rate 125 g/ha, Postemergence, scale 0 to 10, 0 no effect, 10 complete control
[12] = Rate 500 g/ha, Postemergence, 0 to 10 scale (0 no effect, 10 complete control)
[13] = Rate 125 g/ha, Postemergence section (flood test species), scale 0 to 10, 0 no effect, 10 complete control
[14] = Rate 500 g/ha, Postemergence section of Table B, 0 to 10 scale (0 no effect, 10 complete control)
[15] = flood test, listed under Postemergence, Rate 250 g/ha, scale 0 to 10, 0 no effect, 10 complete control
[16] = Rate 500 g/ha, Postemergence, scale 0 to 10, 0 no effect, 10 complete control
[17] = Rate 500 g/ha, listed under Postemergence (flood test species), scale 0 to 10, 0 no effect, 10 complete control
[18] = Preemergence, Rate 62 g/ha, scale 0 to 10 (0 no effect, 10 complete control)

Row | Structure (SMILES) | Cocklebur plant response rating [1, 5] | Cocklebur plant response rating [1, 6] | Plant response rating, Cocklebur [1, 8] | Plant response rating, Cocklebur [1, 9] | Cocklebur plant response rating [1, 10] | Cocklebur plant response rating [1, 11] | Giant foxtail plant response rating [2, 5] | Giant foxtail plant response rating [2, 6] | Plant response rating, Giant foxtail [2, 8] | Plant response rating, Giant foxtail [2, 9] | Giant foxtail plant response rating [2, 10] | Giant foxtail plant response rating [2, 11] | Morningglory plant response rating [3, 5] | Morningglory plant response rating [3, 6] | Plant response rating, Morningglory [3, 8] | Plant response rating, Morningglory [3, 9] | Morningglory plant response rating [3, 10] | Morningglory plant response rating [3, 11] | Barnyardgrass plant response rating [4, 5] | Barnyardgrass plant response rating [4, 13] | other results
1 | COc1ccc(-n2c(=O)on(C(=O)N(c3ccc(F)cc3)C(C)C)c2=O)c(C)c1 [Compound 35] | 0 | 4 | 0 | 0 | 0 | 2 | 0 | 1 | 7 | 10 | 10 | 0 | 4 | 8 | 0 | 0 | 0 | 7 | 0 | 0 | Plant response rating, Cocklebur [1, 7]: 0; Cocklebur plant response rating [1, 12]: 5; Plant response rating, Giant foxtail [2, 7]: 3; Giant foxtail plant response rating [2, 12]: 7; Plant response rating, Morningglory [3, 7]: 0; Morningglory plant response rating [3, 12]: 8; Barnyardgrass plant response rating ([4]; Rate 125 g/ha, Pre-emergence, flood test species, scale 0 to 10 where 0 is no effect and 10 is complete control): 0; Barnyardgrass plant response rating ([4]; Rate 250 g/ha, headed Pre-emergence (flood test species), scale 0 to 10 (0 no effect, 10 complete control)): 0; Barnyardgrass plant response rating [4, 14]: 0; Plant response rating, Barnyardgrass ([4]; Rate 500 g/ha, headed Pre-emergence (flood test species), scale 0 to 10 (0 no effect, 10 complete control)): 0; Barnyardgrass plant response rating ([4]; Rate 1000 g/ha, Pre-emergence (as headed), scale 0 to 10): 0; Barnyardgrass plant response rating [4, 15]: 0
2 | Cc1ccccc1-n1c(=O)on(C(=O)N(c2ccc(Cl)cc2)C(C)C)c1=O [Compound 41] | 0 | 1 | 0 | 0 | 0 | 0 | 0 | 1 | 9 | 10 | 10 | 0 | 1 | 2 | 0 | 0 | 0 | 2 | 0 | 0 | Plant response rating, Cocklebur [1, 7]: 0; Cocklebur plant response rating [1, 12]: 3; Plant response rating, Giant foxtail [2, 7]: 4; Giant foxtail plant response rating [2, 12]: 1; Plant response rating, Morningglory [3, 7]: 0; Morningglory plant response rating [3, 12]: 6; Barnyardgrass plant response rating [4, 14]: 0; Barnyardgrass plant response rating [4, 15]: 0
3 | CC(C)Oc1cc(-n2c(=O)on(C(=O)N(c3ccc(F)cc3)C(C)C)c2=O)c(Cl)cc1Cl [Compound 43] | 0 | 0 | 0 | 0 | 0 | 0 | 0 | 0 | 0 | 0 | 0 | 0 | 2 | 3 | 0 | 0 | 0 | 3 | 0 | 0 | Plant response rating, Cocklebur [1, 7]: 0; Cocklebur plant response rating [1, 12]: 1; Plant response rating, Giant foxtail [2, 7]: 0; Giant foxtail plant response rating [2, 12]: 0; Plant response rating, Morningglory [3, 7]: 0; Morningglory plant response rating [3, 12]: 4; Barnyardgrass plant response rating [4, 14]: 0; Barnyardgrass plant response rating [4, 15]: 0
4 | CCc1ccccc1-n1c(=O)on(C(=O)N(c2ccc(F)cc2F)C(C)C)c1=O [Compound 45] | 0 | 2 | 0 | 0 | 0 | 1 | 0 | 9 | 10 | 10 | 10 | 0 | 0 | 0 | 0 | 0 | 0 | 0 | 0 | 0 | Plant response rating, Cocklebur [1, 7]: 0; Cocklebur plant response rating [1, 12]: 5; Plant response rating, Giant foxtail [2, 7]: 7; Giant foxtail plant response rating [2, 12]: 9; Plant response rating, Morningglory [3, 7]: 0; Morningglory plant response rating [3, 12]: 3; Barnyardgrass plant response rating [4, 14]: 0; Barnyardgrass plant response rating [4, 15]: 0
5 | Cc1ccccc1-n1c(=O)on(C(=O)N(c2ccc(C#N)cc2)C(C)C)c1=O [Compound 51] | 0 | 0 | 0 | 0 | 0 | 0 | 0 | 0 | 2 | 4 | 8 | 0 | 0 | 0 | 0 | 0 | 0 | 0 | 0 | 0 | Plant response rating, Cocklebur [1, 7]: 0; Cocklebur plant response rating [1, 16]: 0; Plant response rating, Giant foxtail [2, 7]: 0; Giant foxtail plant response rating [2, 16]: 3; Plant response rating, Morningglory [3, 7]: 0; Morningglory plant response rating [3, 16]: 1; Barnyardgrass plant response rating [4, 17]: 0; Barnyardgrass plant response rating [4, 15]: 0
6 | CCN(C(=O)n1oc(=O)n(-c2c(C)cc(C)cc2C)c1=O)C1CCCCC1 [Compound 63] | 0 | 0 | 0 | 0 | 0 | 0 | 0 | 0 | 0 | 2 | 3 | 0 | 0 | 4 | 0 | 0 | 0 | 2 | 0 | 0 | Cocklebur plant response rating [1, 18]: 0; Cocklebur plant response rating [1, 16]: 0; Giant foxtail plant response rating [2, 18]: 0; Giant foxtail plant response rating [2, 16]: 2; Morningglory plant response rating [3, 18]: 0; Morningglory plant response rating [3, 16]: 4; Barnyardgrass plant response rating [4, 17]: 0; Barnyardgrass plant response rating [4, 15]: 0
7 | CC(C)N(C(=O)n1oc(=O)n(Cc2cccs2)c1=O)c1ccc(F)cc1 [Compound 80] | 0 | 0 | 0 | 0 | 0 | 0 | 0 | 3 | 8 | 8 | 9 | 2 | 7 | 10 | 0 | 0 | 0 | 8 | 0 | 3 | Cocklebur plant response rating [1, 18]: 0; Cocklebur plant response rating [1, 16]: 1; Giant foxtail plant response rating [2, 18]: 6; Giant foxtail plant response rating [2, 16]: 7; Morningglory plant response rating [3, 18]: 0; Morningglory plant response rating [3, 16]: 10; Barnyardgrass plant response rating [4, 17]: 9; Barnyardgrass plant response rating [4, 15]: 8
